Measurements taken from patent US20190194179A1, “ANTIBIOTIC COMPOUNDS” (DISCUVA LTD., priority 2016, published 2019).
Structures can show the parent of a compound that is named as a salt.

Tested on: Neisseria gonorrhoeae
Assay: EC50 determination: plate-based broth growth assay (absorbance at 600 nm) of Neisseria gonorrhoeae
Assay type: cell-based
Conditions: absorbance 600 nm after 20 hours at 37° C./5% CO2, read-out: IC50 (Inhibitory concentration) against Neisseria gonorrhoeae
Protocol: Actively growing Neisseria gonorrhoeae on GC agar (based on; Spence et. al. (2008): Curr. Protoc. Microbiol. 8:4A.1.1-4A.1.26) plates are harvested and transferred to GC broth (based on; Spence et al (2008): Curr. Protoc. Microbiol. 8:4A.1.1-4A.1.26) to generate a liquid stock. This culture is allowed to establish and grow to mid-log phase (at 37° C./5% CO2), finally this culture is diluted (˜10^5 cells/ml) to generate a seed inoculum to establish plate-based broth assays. EC50 values were determined by assaying growth (absorbance read at 600 nm, after 20 hours at 37° C./5% CO2) of Neisseria gonorrhoeae across a 10-point dilution series of the test compound. The EC50 value is determined from transformed data to identify the concentration of compound giving a 50% response relative to control samples (no compound).

Row | SMILES | IC50 [nM]
1 | Clc1cc(Cl)c2nc(Nc3nnc(CN4CCCC4)[nH]3)oc2c1 [Example 129, 4,6-diChloro-N-(5-(pyrrolidin-1-ylmethyl)-4H-1,2,4-triazol-3-yl)benzo[d]oxazol-2-amine] | ≤ 1000
2 | Cc1nnc(Nc2nc3cc(C(F)(F)F)ccc3o2)o1 [Example 22, N-(5-Methyl-1,3,4-oxadiazol-2-yl)-5-(trifluoromethyl)benzo[d]oxazol-2-amine] | ≤ 1000
3 | O=C(NC1CC1)c1csc(Nc2nc3cc(C(F)(F)F)ccc3o2)n1 [Example 1, N-Cyclopropyl-2-((5-(trifluoromethyl)benzo[d]oxazol-2-yl)amino)thiazole-4-carboxamide] | ≤ 1000
4 | Clc1ccc2oc(Nc3nc4cnccc4o3)nc2c1 [Example 164, N-(5-Chlorobenzo[d]oxazol-2-yl)oxazolo[4,5-c]pyridin-2-amine] | ≤ 100
5 | N#Cc1nnc(Nc2nc3cc(F)ccc3o2)o1 [Example 219, 5-((5-Fluorobenzo[d]oxazol-2-yl)amino)-1,3,4-oxadiazole-2-carbonitrile] | ≤ 1000
6 | N#CC1CCN(Cc2nnc(Nc3nc4cc(C(F)(F)F)ccc4o3)o2)C1 (stereo not shown) [Example 76, 1-((5-((5-(triFluoromethyl)benzo[d]oxazol-2-yl)amino)-1,3,4-oxadiazol-2-yl)methyl)pyrrolidine-3-carbonitrile] | ≤ 10000
7 | CC1CCCN1Cc1nnc(Nc2nc3cc(C(F)(F)F)ccc3o2)o1 (stereo not shown) [Example 73, N-(5-((2-Methylpyrrolidin-1-yl)methyl)-1,3,4-oxadiazol-2-yl)-5-(trifluoromethyl)benzo[d]oxazol-2-amine] | ≤ 1000
8 | Cc1nnc(Nc2nc3cc(C(F)(F)F)ccc3o2)s1 [Example 111, N-(5-Methyl-1,3,4-thiadiazol-2-yl)-5-(trifluoromethyl)benzo[d]oxazol-2-amine] | ≤ 1000
9 | CCOC(=O)c1nnc(Nc2nc3ccc(Cl)cc3o2)o1 [Example 61, Ethyl 5-((6-chlorobenzo[d]oxazol-2-yl)amino)-1,3,4-oxadiazole-2-carboxylate] | ≤ 100
10 | NC(=O)c1nnc(Nc2nc3ccc(C(F)(F)F)cc3o2)o1 [Example 102, 5-((6-(Trifluoromethyl)benzo[d]oxazol-2-yl)amino)-1,3,4-oxadiazole-2-carboxamide] | ≤ 100000
11 | Cc1cc2nc(Nc3nnco3)oc2cc1Cl [Example 188, 6-Chloro-5-methyl-N-(1,3,4-oxadiazol-2-yl)benzo[d]ox-azol-2-amine] | ≤ 100
12 | COC(=O)c1ccc2oc(Nc3nnc(C)o3)nc2c1 [Example 44, Methyl 2-((5-methyl-1,3,4-oxadiazol-2-yl)amino)benzo[d]oxazole-5-carboxylate] | ≤ 100
13 | FC(F)(F)c1ccc2oc(Nc3nnc([C@@H]4CCCN4)o3)nc2c1 [Example 146, (S)-N-(5-(pyrrolidin-2-yl)-1,3,4-oxadiazol-2-yl)-5-(trifluoromethyl)benzo[d]oxazol-2-amine hydrochloride] | ≤ 1000
14 | FC(F)(F)c1ccc2oc(Nc3nnc(CN4CCOCC4)o3)nc2c1 [Example 70, N-(5-(morpholinomethyl)-1,3,4-oxadiazol-2-yl)-5-(trifluoromethyl)benzo[d]oxazol-2-amine] | ≤ 1000
15 | Clc1cccc2nc(Nc3nnco3)oc12 [Example 57, 7-Chloro-N-(1,3,4-oxadiazol-2-yl)benzo[d]oxazol-2-amine] | ≤ 1000
16 | O=C(Nc1cccc(Cl)c1)c1csc(Nc2nc3cc(C(F)(F)F)ccc3o2)n1 [Example 10, N-(3-Chlorophenyl)-2-((5-(trifluoromethyl)benzo[d]oxazol-2-yl)amino)thiazole-4-carboxamide] | ≤ 1000
17 | FC(F)(F)c1ccc2oc(Nc3ncns3)nc2c1 [Example 23, N-(1,2,4-Thiadiazol-5-yl)-5-(trifluoromethyl)benzo[d]oxazol-2-amine] | ≤ 1000
18 | Clc1cccc2oc(Nc3nnco3)nc12 [Example 120, 4-Chloro-N-(1,3,4-oxadiazol-2-yl)benzo[d]oxazol-2-amine] | ≤ 1000
19 | FC(F)(F)Oc1cc2nc(Nc3nnco3)oc2cc1Cl [Example 205, 6-Chloro-N-(1,3,4-oxadiazol-2-yl)-5-(trifluoro-methoxy)benzo [d]ox-azol-2-amine] | ≤ 1000
20 | Clc1ccc2nc(Nc3ccon3)oc2c1 [Example 46, 6-Chloro-N-(isoxazol-3-yl)benzo[d]oxazol-2-amine] | ≤ 1000
21 | Clc1ccc2nc(Nc3nnc(N4CCCC4)o3)oc2c1 [Example 198, 6-Chloro-N-(5-(pyrrolidin-1-yl)-1,3,4-oxadiazol-2-yl)benzo[d]oxa-zol-2-amine] | ≤ 10000
22 | FC(F)(F)c1ccc2oc(Nc3nc4ccccc4o3)nc2c1 [Example 158, N-(Benzo[d]oxazol-2-yl)-5-(trifluoromethyl) benzo[d]oxazol-2-amine] | ≤ 100
23 | Cc1cc2oc(Nc3nnco3)nc2cc1Cl [Example 187, 5-Chloro-6-methyl-N-(1,3,4-oxadiazol-2-yl)benzo[d]ox-azol-2-amine] | ≤ 100

Row | SMILES | IC50 [nM]
24 | NC(=O)c1nnc(Nc2nc3ccc(F)cc3o2)o1 [Example 201, 5-((6-Fluorobenzo[d]oxazol-2-yl)amino)-1,3,4-oxadiazole-2-carboxamide] | ≤ 100000
25 | COc1cc2oc(Nc3nnco3)nc2cc1C [Example 208, 6-Methoxy-5-methyl-N-(1,3,4-oxadiazol-2-yl)benzo[d]oxa-zol-2-amine] | ≤ 1000
26 | FC(F)(F)Oc1cc2oc(Nc3nnco3)nc2cc1Cl [Example 191] | ≤ 100
27 | CNC(=O)c1csc(Nc2nc3cc(C(F)(F)F)ccc3o2)n1 [Example 2, N-Methyl-2-((5-(trifluoromethyl)benzo[d]oxazol-2-yl)amino)thiazole-4-carboxamide] | ≤ 1000
28 | Cc1noc(Nc2nc3cc(C(F)(F)F)ccc3o2)n1 [Example 31, N-(3-Methyl-1,2,4-oxadiazol-5-yl)-5-(trifluoromethyl)benzo[d]oxazol-2-amine] | ≤ 1000
29 | Cc1nnc(Nc2nc3ccc(F)cc3o2)o1 [Example 54, 6-Fluoro-N-(5-methyl-1,3,4-oxadiazol-2-yl)benzo[d]oxazol-2-amine] | ≤ 1000
30 | CCNC(=O)c1csc(Nc2nc3cc(C(F)(F)F)ccc3o2)n1 [Example 3, N-Ethyl-2-((5-(trifluoromethyl)benzo[d]oxazol-2-yl)amino)thiazole-4-carboxamide] | ≤ 1000
31 | OCc1ccc2nc(Nc3nnco3)oc2c1 [Example 181, (2-((1,3,4-Oxadiazol-2-yl)amino)ben-zo[d]oxazol-6-yl)methanol] | ≤ 10000
32 | Cc1nnc(Nc2nc3cc(C(F)(F)F)c(Cl)cc3[nH]2)[nH]1 [Example 153, 6-Chloro-N-(5-methyl-4H-1,2,4-triazol-3-yl)-5-(trifluoromethyl)-1H-benzo[d]imidazol-2-amine] | ≤ 10000
33 | O=C(Nc1ccccc1)c1csc(Nc2nc3cc(C(F)(F)F)ccc3o2)n1 [Example 5, N-Phenyl-2-((5-(trifluoromethyl)benzo[d]oxazol-2-yl)amino)thiazole-4-carboxamide] | ≤ 1000
34 | FC(F)(F)c1ccc2oc(Nc3nccs3)nc2c1 [Example 6, N-(Thiazol-2-yl)-5-(trifluoromethyl)benzo[d]oxazol-2-amine] | ≤ 1000
35 | Clc1ccc2nc(Nc3nnc(C4CCOC4)o3)oc2c1 (stereo not shown) [Example 199, 6-Chloro-N-(5-(tetrahydrofuran-3-yl)-1,3,4-oxadiazol-2-yl)benzo[d]oxa-zol-2-amine] | ≤ 1000
36 | Cc1nnc(Nc2nc3c(Cl)cc(Cl)cc3o2)o1 [Example 40, 4,6-Dichloro-N-(5-methyl-1,3,4-oxadiazol-2-yl)benzo[d]oxazol-2-amine] | ≤ 100
37 | Cc1nccc2oc(Nc3nc4ccccc4o3)nc12 [Example 171, N-(Benzo[d]oxazol-2-yl)-4-methyloxazolo[4,5-c]pyridin-2-amine] | ≤ 1000
38 | NC(=O)c1nnc(Nc2nc3cc(F)ccc3o2)o1 [Example 202, 5-((5-Fluorobenzo[d]oxazol-2-yl)amino)-1,3,4-oxadiazole-2-carboxamide] | ≤ 200000
39 | FC(F)(F)c1cc2oc(Nc3nc4cnccc4o3)nc2cn1 [Example 161, N-(Oxazolo[4,5-c]pyridin-2-yl)-6-(trifluoromethyl)oxazolo[4,5-c]pyridin-2-amine] | ≤ 100000
40 | FC(F)(F)c1ccc2oc(Nc3nnc(CN4CCCC4)[nH]3)nc2c1 [Example 128, N-(5-(Pyrrolidin-1-ylmethyl)-4H-1,2,4-triazol-3-yl)-5-(trifluoromethyl)benzo[d]oxazol-2-amine] | ≤ 1000
41 | FC(F)(F)c1ccc2oc(Nc3nnc(CN4CCCC4)o3)nc2c1 [Example 71, N-(5-(Pyrrolidin-1-ylmethyl)-1,3,4-oxadiazol-2-yl)-5-(trifluoromethyl)benzo[d]oxazol-2-amine] | ≤ 1000
42 | Oc1ccc2nc(Nc3nnco3)oc2c1 [Example 177, 2-((1,3,4-Oxadiazol-2-yl)amino)ben-zo[d]oxazol-6-ol] | ≤ 10000
43 | O=C(Nc1ccnc(F)c1)c1csc(Nc2nc3cc(C(F)(F)F)ccc3o2)n1 [Example 98, N-(2-fluoropyridin-4-yl)-2-((5-(trifluoromethyl)benzo[d]oxazol-2-yl)amino)thiazole-4-carboxamide] | ≤ 100
44 | CC(C)Oc1ccc2nc(Nc3nnco3)oc2c1 [Example 196, 6-Isopropoxy-N-(1,3,4-oxadiazol-2-yl)benzo[d]oxazol-2-amine] | ≤ 100000
45 | Clc1ccc2nc(Nc3ncno3)oc2c1 [Example 224, 6-chloro-N-(1,2,4-oxadiazol-5-yl)benzo[d]oxazol-2-amine] | ≤ 100000
46 | CC(C)(C)c1csc(Nc2nc3cc(C(F)(F)F)ccc3o2)n1 [Example 13, N-(4-(tert-butyl)thiazol-2-yl)-5-(trifluoromethyl)benzo[d]oxazol-2-amine] | ≤ 10000
